Patent publication US5294619A, “Arylpiperidine derivatives” (Pfizer Inc., priority 1992, dated 1994)

Target: T1, dopamine-2 receptor (Rattus norvegicus, UniProt P61169)
T1 construct: The caudate and mesolimbic areas were then homogenized; from tissue; host or cells: rat brain, caudate and mesolimbic areas (washed membrane homogenate)
Test: 3[H]-N-propylnorapomorphine binding assay (rat caudate and mesolimbic brain tissue)
Details: inhibition of 3[H]-N-propylnorapomorphine binding, 0.32 nM radioligand, pH 7.5, 25° C., 30 minutes
Experimental: The anti-psychotic activity of the compounds of the present invention as neuroleptic agents for the control of various psychotic disorders is determined primarily by a study of their ability to suppress ^3 [H]-N-propylnorapormorphine (dopamine-2 receptor) uptake in the brain of rats (in vitro). This study is carried out in a standard ^3 [H]-N-propylnorapomorphine binding assay test, where the amount of radioactivity is determined by liquid scintillation counting. In this way, the compounds can be rated in terms of their ability to reduce the amount of radioactivity caused by the aforesaid dopamine-2-receptor.
The N-substituted arylpiperidine compounds of Examples 1-18, respectively, were tested for anti-psychotic activity in rats, using the standard ^3 [H]-N-propylnorapomorphine binding assay test, according to the general procedure described by K. Fuxe et al., as reported in the European Journal of Pharmacology, Vol. 100, p. 127 (1984).
In this procedure, the brain was quickly removed from a decapitated rat and the caudate and mesolimbic areas were subsequently dissected therefrom to afford an average of ca. 150-180 mg. of material per rat. The caudate and mesolimbic areas were then homogenized on admixture with 40 volumes of ice-cold 15 mM Tris (i.e., tromethamine which is 2-amino-2-hydroxymethyl-1,3-propanediol) hydrochloride buffer having a pH of 7.5, which also contained 1.0 mM ethylenediaminetetraacetic acid (EDTA) and 0.01% ascorbic acid. The homogenate was next centrifuged at 35,000×G for a period of ten minutes. The supernatant liquid was then decanted, and the resulting pellet subsequently resuspended in 40 volumes of fresh, ice-cold Tris-EDTA buffer and homogenized, followed by incubation 37° C. for a period of ten minutes. The resulting homogenate was next re-centrifuged at 35,000×G for another ten-minute period, followed by decantation of the supernatant liquid. The pellet obtained in this manner was then resuspended again in the Tris-EDTA buffer, followed by a repeat of the centrifugation and decantation steps, with the final pellet being resuspended once more in 15 mM Tris-EDTA buffer at a concentration level of 11.25 mg./ml. This completed the production of the tissue preparation phase of the overall procedure.
. The final reaction mixture was next vortexed and incubated at 25° C. for a period of 30 minutes (using a 25° C. water bath for these purposes). […] Upon completion of the reaction step, the incubation period was terminated by subjecting the tubes to rapid filtration under vacuum through fiber filters, followed by two rinses with 5 ml. of ice-cold 15 mM Tris-EDTA buffer for each tube. The filters thus obtained were next soaked in 10 ml. of Aquasol 2 (a registered trademark name of New England Nuclear Corporation of Boston, Massachusetts for a liquid scintillation counter material), vortexed and then allowed to stand overnight (ca. 18 hours) at ambient temperatures in order to extract radioactivity. The amount of radioactivity was determined by liquid scintillation counting, using a Beta counter at 53% counting efficiency. The IC50 values were thereafter calculated by using standard statistical methods. On this basis, the ability of each test compound to reduce the amount of radioactivity caused by ^3 [H]-N-propylnorapomorphine is given as an IC50 value, expressed in terms of nM units.
In this way, the N-substituted arylpiperidine compounds of formula I that were reported as final products in Examples 1-18, respectively, were all assayed and found to be capable of inhibiting ^3 [H]-N-propylnorapomorphine binding at its dopamine-2 receptor site at the previously-indicated dose level tested. The results obtained in this manner are shown below in the following table, where the binding assay for each compound is reported in terms of the previously-discussed IC50 value: […]

T1 sequence (P61169 whole entry): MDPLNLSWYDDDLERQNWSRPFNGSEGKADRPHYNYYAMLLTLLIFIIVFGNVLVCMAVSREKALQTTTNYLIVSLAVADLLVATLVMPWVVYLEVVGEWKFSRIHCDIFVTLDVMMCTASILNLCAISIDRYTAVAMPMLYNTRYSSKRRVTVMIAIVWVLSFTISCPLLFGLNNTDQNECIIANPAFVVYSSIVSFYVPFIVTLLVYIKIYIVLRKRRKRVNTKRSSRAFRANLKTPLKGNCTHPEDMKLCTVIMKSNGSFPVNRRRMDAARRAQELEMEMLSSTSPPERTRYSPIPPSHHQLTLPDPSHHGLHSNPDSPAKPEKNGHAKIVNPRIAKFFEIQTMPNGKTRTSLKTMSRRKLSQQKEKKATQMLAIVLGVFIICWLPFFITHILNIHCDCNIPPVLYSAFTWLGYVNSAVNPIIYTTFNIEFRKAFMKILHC

IC50 [nM] | Compound
114 | Cc1nc2ccccn2c(=O)c1CCN1CCC(c2cccc3ccccc23)CC1 [Example 1, 3-{2-[4-(1-naphthyl)-piperidinyl]ethyl}-2-methyl-4H-pyrido[1,2-a]-pyrimidine-4-one]
196 | Nc1nc(-c2ccc(CCN3CCC(c4cccc5ccccc45)CC3)cc2)cs1 [Example 2, 4-{{4-{2-[4-(1-naphthyl)piperidinyl]ethyl}phenyl}}thiazole-2-amine]
239 | O=C1CC2(CCCC2)CC(=O)N1CCCCN1CCC(c2cccc3ccccc23)CC1 [Example 3, 8-{4-[4-(1-naphthyl)-1-piperidinyl]-butyl}-8-azaspiro[4.5]decane-7,9-dione]
184 | O=C1Cc2cc(CCN3CCC(c4cccc5ccccc45)CC3)ccc2N1 [Example 4, 5-{2-[4-(1-naphthyl)-1-piperidinyl]ethyl}-oxindole]
169 | O=C1Cc2cc(CCN3CCCC(c4cccc5ccccc45)C3)ccc2N1 (stereo not drawn) [Example 5, 5-{2-[3-(1-naphthyl)-1-piperidinyl]ethyl}oxindole]
169 | CC12CCC(C(=O)N(CCCCN3CCC(c4cccc5ccccc45)CC3)C1=O)C2(C)C (stereo not drawn) [Example 6, 3-{4-[4-(1-naphthyl)-1-piperidinyl]-n-butyl}-1,8,8-trimethyl-3-azabicyclo[3.2.1]octane-2,4-dione]
1110 | CC12CCC(C(=O)N(CCCCN3CCCC(c4cccc5ccccc45)C3)C1=O)C2(C)C (stereo not drawn) [Example 7]
362 | Oc1ccc(CCN2CCC(c3ccccc3)CC2)cc1 [Example 8, 4-[2-(4-phenyl-1-piperidinyl)ethyl]phenol]
601 | Oc1ccc(CCN2CCC(c3cccc(C(F)(F)F)c3)CC2)cc1 [Example 9, 4-{2-[4-(3-trifluoromethylphenyl)-piperidinyl]ethyl}phenol]
210 | FC(F)(F)c1cccc(C2CCN(CCOc3ccccc3)CC2)c1 [Example 10, 1-{2-[4-(3-trifluoromethylphenyl)-1-piperidinyl]ethyloxy}benzene]
36.3 | COc1ccccc1C1CCN(CCc2ccc(-c3csc(N)n3)cc2)CC1 [Example 11, 4-{{4-{2-[4-(2-methoxyphenyl)-1-piperidinyl]ethyl}-phenyl}}-thiazole-2-amine]
150 | COc1ccccc1C1CCCN(CCc2ccc(-c3csc(N)n3)cc2)C1 (stereo not drawn) [Example 12, 4-{{4-{2-[3-(2-methoxyphenyl)-1-piperidinyl]ethyl}phenyl}}-thiazole-2-amine]
247 | COc1ccccc1C1CCCN(CCCCc2ccc(-c3csc(N)n3)cc2)C1 (stereo not drawn) [Example 13, 4-{{4-{4-[3-(2-methoxyphenyl)-1-piperidinyl]n-butyl}-phenyl}}thiazole-2amine]
51.6 | COc1ccccc1C1CCN(CCCCc2ccc(-c3csc(N)n3)cc2)CC1 [Example 14, 4-{{4-{4-[4-(2-methoxyphenyl)-1-piperidinyl]-n-butyl}-phenyl}}thiazole-2-amine]
531 | COc1ccccc1C1CCCN(CCCCN2C(=O)CC3(CCCC3)CC2=O)C1 (stereo not drawn) [Example 15, 8-{4-[3-(2-methoxyphenyl)-1-piperidinyl]-n-butyl}-8-azaspiro[4.5]decane-7,9-dione]
52.2 | COc1ccccc1C1CCN(CCc2ccc3c(c2)CC(=O)N3)CC1 [Example 16, 5-{2-[4-(2-methoxyphenyl)-1-piperidinyl]ethyl}oxindole]
51.5 | COc1ccccc1C1CCN(CCCCN2C(=O)C3CCC(C)(C2=O)C3(C)C)CC1 (stereo not drawn) [Example 17]
679 | COc1ccccc1C1CCCN(CCCCN2C(=O)C3CCC(C)(C2=O)C3(C)C)C1 (stereo not drawn) [Example 18, 3-{4-[3-(2-methoxyphenyl)-1-piperidinyl]-n-butyl]-1,8,8-trimethyl-3-azabicyclo[3.2.1]octane-2,4-dione]
